According to patent publication US20010018071A1, “Oral 2-methyl-thieno-benzodiazepine formulation” (priority 1995, published 2001):

How the values were obtained:
[1] = Polymorph stability and transformation; assay type: physicochemical; details: for polymorph stability: anhydrous crystal forms
From the text: Unfortunately, anhydrous Form II olanzapine is metastable and is therefore not well suited for commercial use in pharmaceutical formulations. Applicants have discovered that the pharmaceutically elegant anhydrous Form I olanzapine can be formulated in its substantially pure form as a stable solid oral preparation. Such formulation provides assurance of a uniform pharmaceutically elegant product substantially free of Form II impurity in order to comply with regulatory requirements.
Further certain excipients exacerbate physical instability. For commercial pharmaceutical development and compliance with regulatory guidelines, it is important to assure that marketed formulations comprise a uniform pharmaceutically elegant substantially pure anyhydrous Form I 2-methyl-4-(4-methyl-1-piperazinyl)-10H-thieno[2,3-b] [1,5] benzodiazepine compound as the active ingredient and most preferably the formulation is free from undesired discolorations.
(§1) The Form I 2-methyl-4-(4-methyl-1-piperazinyl)-10H-thieno[2,3-b]

[2] = Discoloration of olanzapine on contact with excipients; assay type: physicochemical
From the text: Further, the discoloration was exacerbated by ambient air conditions, at elevated temperatures, and by moist environments.
as §1

[3] = Detection of radiolabelled compound in saliva; assay type: in vivo
Experimental: The anhydrous Form I 2-methyl-4-(4-methyl-1-piperazinyl)-10H-thieno-[2,3-b][1,5]benzodiazepine compound is effective over a wide dosage range, the actual dose administered being dependent on the condition being treated. For example, in the treatment of adult humans, dosages of from about 0.25 to 50 mg, preferably from 1 to 30 mg, and most preferably 1 to 20 mg per day may be used. A once a day dosage is normally sufficient, although divided doses may be administered. For treatment of central nervous system disorders, a dose range of from 1 to 30 mg, preferably 1 to 20 mg per day is suitable. Radiolabelled Form I 2-methyl-4-(4-methyl-1-piperazinyl)-10H-thieno-[2,3-b]

## Cc1cc2c(s1)Nc1ccccc1N=C2N1CCN(C)CC1 [Form I olanzapine, 2-methyl-4-(4-methyl-1-piperazinyl)-10H-thieno[2,3-b][1,5] benzodiazepine]
[1]
  polymorph stability: most stable known form
[1]; contact with methylene chloride
  polymorphic conversion: can be converted to the less desirable polymorphic forms

## Cc1cc2c(s1)Nc1ccccc1N=C2N1CCN(C)CC1 [anhydrous Form II olanzapine, 2-methyl-4-(4-methyl-1-piperazinyl)-10H-thieno[2,3-b][1,5] benzodiazepine]
[1]
  polymorph stability: metastable

## Cc1cc2c(s1)Nc1ccccc1N=C2N1CCN(C)CC1 [olanzapine, 2-methyl-4-(4-methyl-1-piperazinyl)-10H-thieno[2,3-b][1,5] benzodiazepine]
[2]; contacted with certain excipients including powder blends
  discoloration: undergoes undesirable discoloration
[2]; polyethylene glycol contact, particularly under moist conditions
  discoloration: produces undesired discoloration

## Cc1cc2c(s1)Nc1ccccc1N=C2N1CCN(C)CC1 [2-methyl-4-(4-methyl-1-piperazinyl)-10H-thieno-[2,3-b] [1,5]benzodiazepine]
[3]
  detection in saliva: can be detected in the saliva
